Assay results: ChEMBL document CHEMBL1671659, “In vitro and in vivo properties of dihydrophthalazine antifolates, a novel family of antibacterial drugs” (Antimicrob Agents Chemother, 2009)
In brackets after ≈: the same amount, converted by molar mass. Activity calls are given as the source filed them. No cut-off for these calls is given here.

How the values were obtained:
Enterococcus faecium [1] = assay: Antibacterial activity against vancomycin-sensitive dfrE, dfrF-negative and folA-positive Enterococcus faecium; type: functional
Streptococcus pneumoniae [2] = assay: Antibacterial activity against Streptococcus pneumoniae in presence of 50 ug/ml thymidine; type: functional
Streptococcus pneumoniae [3] = assay: Antibacterial activity against Streptococcus pneumoniae
Mus musculus [4] = assay: Toxicity in po dosed NMRI mouse; type: organism-based; conditions: in vivo
Enterococcus faecium [5] = assay: Antibacterial activity against Enterococcus faecium in presence of 250 ug/ml thymidine; type: functional
Mus musculus [6] = assay: Hepatotoxicity in NMRI mouse assessed as inflammatory infiltrates at 400 mg/kg administered through oral gavage for 5 days; type: toxicity, organism-based; parameters: dose 400 mg/kg, route oral; conditions: in vivo, 120 h
[7] = Tmax in NMRI mouse blood at 25 mg/kg administered through oral gavage measured after 7 hrs; type: ADME, organism-based; parameters: dose 25 mg/kg, route oral
Staphylococcus aureus [8] = assay: Antibacterial activity against methicillin-resistant dfrA within SCCmec-N1, dfrA and dfrG -negative Staphylococcus aureus harboring F98Y mutation in dfrB gene; type: functional
Dihydrofolate reductase = Dihydrofolate reductase (Staphylococcus aureus, UniProt P0A017, F99Y); assay: Inhibition of trimethoprim-resistant Staphylococcus aureus DfrB type dihydrofolate reductase F98Y mutant
Staphylococcus aureus [9] = assay: Antibacterial activity against trimethoprim-sensitive Staphylococcus aureus ATCC 29213 infected in NMRI mouse model of septicemia; type: functional
[10] = tested on: Staphylococcus epidermidis; assay: Antibacterial activity against methicillin, vancomycin-sensitive and trimethoprim-resistant Staphylococcus epidermidis BAS000635 harboring dfrC and dfrA genes; type: functional
Mus musculus [11] = assay: Hepatotoxicity in NMRI mouse assessed as increase in mitosis at 400 mg/kg administered through oral gavage for 10 days; type: toxicity, organism-based; parameters: dose 400 mg/kg, route oral; conditions: in vivo, 240 h
Staphylococcus aureus [12] = assay: Antibacterial activity against trimethoprim-sensitive Staphylococcus aureus ATCC 29213 infected in NMRI mouse model of septicemia assessed as complete protection from infections at 3.1 mg/kg, iv; type: functional, organism-based; parameters: dose 3.1 mg/kg
Enterococcus faecalis [13] = assay: Antibacterial activity against Enterococcus faecalis in presence of 50 ug/ml thymidine; type: functional
Enterococcus faecium [14] = assay: Antibacterial activity against Enterococcus faecium; type: functional
Mycobacterium avium = assay: Antibacterial activity against Mycobacterium avium assessed as inhibition of bacterial growth at <=4 ug/ml; type: functional; parameters: scale not given: the % may be the effect or the level left
Mus musculus [15] = assay: Hepatotoxicity in NMRI mouse assessed as increase in liver weight at 400 mg/kg administered through oral gavage for 10 days; type: toxicity, organism-based; parameters: dose 400 mg/kg, route oral; conditions: in vivo, 240 h
[16] = tested on: Staphylococcus epidermidis; assay: Antibacterial activity against methicillin-sensitive dfrC, dfrA-positive and dfrD-negative Staphylococcus epidermidis; type: functional
Staphylococcus aureus [17] = assay: Antibacterial activity against trimethoprim-sensitive Staphylococcus aureus ATCC 29213; type: functional
Staphylococcus aureus [18] = assay: Antibacterial activity against trimethoprim-resistant Staphylococcus aureus BAS003908 infected in NMRI mouse model of septicemia; type: functional
Streptococcus pneumoniae [19] = assay: Antibacterial activity against Streptococcus pneumoniae in presence of 250 ug/ml thymidine; type: functional
Staphylococcus aureus [20] = assay: Antibacterial activity against methicillin-resistant dfrB, dfrG-positive and dfrA-negative Staphylococcus aureus; type: functional
Enterococcus faecalis [21] = assay: Antibacterial activity against Enterococcus faecalis; type: functional
Haemophilus influenzae [22] = assay: Antibacterial activity against Haemophilus influenzae in presence of 250 ug/ml thymidine; type: functional
[23] = Genotoxicity in Salmonella enterica serovar Typhimurium assessed as increase in number of bacterial revertant colonies by Ames test; type: toxicity; conditions: salmonella enterica subsp. enterica serovar typhimurium
Enterococcus faecalis [24] = assay: Antibacterial activity against vancomycin-sensitive dfrE, dfrF-positive and folA-negative Enterococcus faecalis; type: functional
Enterococcus faecium [25] = assay: Antibacterial activity against Enterococcus faecium in presence of 50 ug/ml thymidine; type: functional
[26] = tested on: Staphylococcus epidermidis; assay: Antibacterial activity against methicillin-sensitive dfrA, dfrD-negative Staphylococcus epidermidis harboring F98Y mutation in dfrC gene; type: functional
Enterococcus faecalis [27] = assay: Antibacterial activity against Enterococcus faecalis in presence of 250 ug/ml thymidine; type: functional
Mus musculus [28] = assay: Hepatotoxicity in NMRI mouse assessed as single-cell necrosis at 400 mg/kg administered through oral gavage for 10 days; type: toxicity, organism-based; parameters: dose 400 mg/kg, route oral; conditions: in vivo, 240 h
HeLa = assay: Cytotoxicity against human HeLa cells; type: cell-based
Haemophilus influenzae [29] = assay: Antibacterial activity against Haemophilus influenzae in presence of 50 ug/ml thymidine
[30] = Cmax in NMRI mouse blood at 25 mg/kg administered through oral gavage measured after 7 hrs; type: ADME, organism-based; parameters: dose 25 mg/kg, route oral
[31] = tested on: Staphylococcus epidermidis; assay: Antibacterial activity against methicillin-sensitive dfrC-positive and dfrA, dfrD-negative Staphylococcus epidermidis; type: functional
Staphylococcus aureus [32] = assay: Antibacterial activity against methicillin, vancomycin, trimethoprim-sensitive Staphylococcus aureus ATCC 29213 harboring dfrB gene; type: functional
Mus musculus [33] = assay: Hepatotoxicity in NMRI mouse assessed as inflammatory infiltrates at 400 mg/kg administered through oral gavage for 10 days; type: toxicity, organism-based; parameters: dose 400 mg/kg, route oral; conditions: in vivo, 240 h
[34] = AUC (0 to t) in NMRI mouse blood at 25 mg/kg administered through oral gavage after 7 hrs; type: ADME, organism-based; parameters: time < 7 hr, dose 25 mg/kg, route oral
Enterococcus faecium [35] = assay: Antibacterial activity against vancomycin-resistant dfrE, dfrF-negative and folA-positive Enterococcus faecium; type: functional
Staphylococcus aureus [36] = assay: Antibacterial activity against methicillin-sensitive dfrB-positive abd dfrA, dfrG-negative Staphylococcus aureus; type: functional
Mus musculus [37] = assay: Hepatotoxicity in NMRI mouse assessed as single-cell necrosis at 400 mg/kg administered through oral gavage for 5 days; type: toxicity, organism-based; parameters: dose 400 mg/kg, route oral; conditions: in vivo, 120 h
Staphylococcus aureus [38] = assay: Antibacterial activity against vancomycin, trimethoprim-sensitive and methicillin-resistant Staphylococcus aureus ATCC 43300 harboring dfrB gene; type: functional
Enterococcus faecalis [39] = assay: Antibacterial activity against vancomycin-sensitive folA, dfrF-negative Enterococcus faecalis harboring A5T, K88N, F102Y mutation in dfrE gene; type: functional
Haemophilus influenzae [40] = assay: Antibacterial activity against Haemophilus influenzae; type: functional
[41] = Oral bioavailability in NMRI mouse; type: ADME, organism-based; conditions: in vivo
Staphylococcus aureus [42] = assay: Antibacterial activity against vancomycin, trimethoprim, methicillin-resistant Staphylococcus aureus VRS1 harboring dfrA and dfrB genes; type: functional
[43] = Inhibition of trimethoprim-resistant Staphylococcus aureus Type S1 dihydrofolate reductase
Staphylococcus aureus [44] = assay: Antibacterial activity against trimethoprim-resistant Staphylococcus aureus BAS003908; type: functional
[45] = Inhibition of trimethoprim-sensitive Staphylococcus aureus DfrB type dihydrofolate reductase
Staphylococcus aureus [46] = assay: Antibacterial activity against trimethoprim-sensitive Staphylococcus aureus ATCC 29213 infected in NMRI mouse model of septicemia assessed as succumbed to infections at 1.6 mg/kg, iv; type: functional, organism-based; parameters: dose 1.6 mg/kg
Mus musculus [47] = assay: Hepatotoxicity in NMRI mouse assessed as increase in liver weight at 400 mg/kg administered through oral gavage for 5 days; type: toxicity, organism-based; parameters: dose 400 mg/kg, route oral; conditions: in vivo, 120 h
Staphylococcus aureus [48] = assay: Antibacterial activity against methicillin-resistant dfrB, dfrA-positive and dfrA within SCCmec-N1, dfrG-negative Staphylococcus aureus; type: functional
Mus musculus [49] = assay: Hepatotoxicity in NMRI mouse assessed as increase in mitosis at 400 mg/kg administered through oral gavage for 5 days; type: toxicity, organism-based; parameters: dose 400 mg/kg, route oral; conditions: in vivo, 120 h
[50] = tested on: Staphylococcus epidermidis; assay: Antibacterial activity against methicillin-resistant dfrC, dfrA-positive and dfrA within SCCmec-N1, dfrD-negative Staphylococcus epidermidis; type: functional
[51] = tested on: Staphylococcus epidermidis; assay: Antibacterial activity against methicillin, vancomycin, trimethoprim-sensitive Staphylococcus epidermidis ATCC 14990 harboring dfrC gene; type: functional

## COc1ncc(C2c3ccccc3C=NN2C(=O)/C=C/c2cc(Cc3cnc(N)nc3N)cc(OC)c2OC)cn1 (stereo not given)
Enterococcus faecium [1]
  MIC: ≤ 0.25 µg/mL
Streptococcus pneumoniae [2]
  MIC: 32 µg/mL
Streptococcus pneumoniae [3]
  MIC: 64 µg/mL (≈ 116 µM)
Mus musculus [4]
  Activity: 400 mg/kg
Enterococcus faecium [5]
  MIC: > 128 µg/mL
Mus musculus [6]
  Activity: < 10%
[7]
  Tmax: 30 min
Staphylococcus aureus [8]
  MIC: 0.5 µg/mL (≈ 0.905 µM)
Dihydrofolate reductase
  IC50: 22.6 nM
Staphylococcus aureus [9]
  ED50: 1.6 mg/kg
[10]
  MIC: 4 µg/mL (≈ 7.24 µM)
Mus musculus [11]
  Activity: < 10%
Staphylococcus aureus [12]
  Activity: Active
Enterococcus faecalis [13]
  MIC: ≤ 0.25 µg/mL
Enterococcus faecium [14]
  MIC: 1 µg/mL (≈ 1.81 µM)
Mycobacterium avium
  Activity: 77%
Mus musculus [15]
  Activity: < 10%
[16]
  MIC: 0.5 µg/mL (≈ 0.905 µM)
Staphylococcus aureus [17]
  MIC: < 0.25 µg/mL
Staphylococcus aureus [18]
  ED50: 3.1 mg/kg
Streptococcus pneumoniae [19]
  MIC: ≥ 128 µg/mL
Staphylococcus aureus [20]
  MIC: 32 µg/mL (≈ 57.9 µM)
Enterococcus faecalis [21]
  MIC: ≤ 0.25 µg/mL
Haemophilus influenzae [22]
  MIC: 32 µg/mL
[23]
  Activity: Non-toxic
Enterococcus faecalis [24]
  MIC: > 128 µg/mL
Enterococcus faecium [25]
  MIC: ≥ 128 µg/mL
[26]
  MIC: 0.5 µg/mL (≈ 0.905 µM)
Enterococcus faecalis [27]
  MIC: 1 µg/mL
Mus musculus [28]
  Activity: < 10%
HeLa
  IC50: 12000 nM
Haemophilus influenzae [29]
  MIC: 64 µg/mL
[30]
  Cmax: 3240 ng/mL
[31]
  MIC: ≤ 0.25 µg/mL
Staphylococcus aureus [32]
  MIC: 0.5 µg/mL (≈ 0.905 µM)
Mus musculus [33]
  Activity: < 10%
[34]
  AUC(0-t) at 7 h: 10600 ng·h/mL
Enterococcus faecium [35]
  MIC: 2 µg/mL (≈ 3.62 µM)
Staphylococcus aureus [36]
  MIC: ≤ 0.25 µg/mL
Mus musculus [37]
  Activity: < 10%
Staphylococcus aureus [38]
  MIC: 0.25 µg/mL (≈ 0.452 µM)
Enterococcus faecalis [39]
  MIC: 0.5 µg/mL (≈ 0.905 µM)
Haemophilus influenzae [40]
  MIC: > 128 µg/mL
[41]
  bioavailability: 25%
Staphylococcus aureus [42]
  MIC: 4 µg/mL (≈ 7.24 µM)
[43]
  IC50: 121 nM
Staphylococcus aureus [44]
  MIC: 0.5 µg/mL (≈ 0.905 µM)
[45]
  IC50: 5.2 nM
Staphylococcus aureus [46]
  Activity: inactive
Mus musculus [47]
  Activity: < 10%
Staphylococcus aureus [48]
  MIC: 1 µg/mL (≈ 1.81 µM)
Staphylococcus aureus [48]; Staphylococcus aureus, read-out: MIC
  MIC: 1 µg/mL (≈ 1.81 µM)
Mus musculus [49]
  Activity: < 10%
[50]
  MIC: 0.5 µg/mL (≈ 0.905 µM)
[51]
  MIC: 0.125 µg/mL (≈ 0.226 µM)
